Data taken from publication PMC3367438 (2011).

Target: Aβ42 (β-amyloid peptide) (Homo sapiens, UniProt P05067)
Test: fluorescence polarization of the intrinsically fluorescent probe
Type: binding

Sequence of Aβ42 (β-amyloid peptide) (P05067 672-713 limits assumed): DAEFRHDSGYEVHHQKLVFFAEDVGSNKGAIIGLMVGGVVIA

Compound: COc1cc(C=CC(=O)C(Cc2cn(CCCCCCNC(=O)CCNC(=O)CCNC(=O)COC3CCC4(C)C(=CCC5C4CCC4(C)C(C(C)CCCC(C)C)CCC54)C3)nn2)C(=O)C=Cc2ccc(O)c(OC)c2)ccc1O (stereo not shown) [compound 7, BMAOI 14]
- Kd: 830 nM
